Measured values: US20220089575A1, “FARNESOID X RECEPTOR AGONISTS AND USES THEREOF” (Metacrine, Inc., priority 2017, published 2022)

Molecular target: T1, hFXR (Homo sapiens, UniProt Q96RI1)
T1 construct: expressed in transfected cells; host or cells: CV-1 cells
T1 sequence (Q96RI1 1-486): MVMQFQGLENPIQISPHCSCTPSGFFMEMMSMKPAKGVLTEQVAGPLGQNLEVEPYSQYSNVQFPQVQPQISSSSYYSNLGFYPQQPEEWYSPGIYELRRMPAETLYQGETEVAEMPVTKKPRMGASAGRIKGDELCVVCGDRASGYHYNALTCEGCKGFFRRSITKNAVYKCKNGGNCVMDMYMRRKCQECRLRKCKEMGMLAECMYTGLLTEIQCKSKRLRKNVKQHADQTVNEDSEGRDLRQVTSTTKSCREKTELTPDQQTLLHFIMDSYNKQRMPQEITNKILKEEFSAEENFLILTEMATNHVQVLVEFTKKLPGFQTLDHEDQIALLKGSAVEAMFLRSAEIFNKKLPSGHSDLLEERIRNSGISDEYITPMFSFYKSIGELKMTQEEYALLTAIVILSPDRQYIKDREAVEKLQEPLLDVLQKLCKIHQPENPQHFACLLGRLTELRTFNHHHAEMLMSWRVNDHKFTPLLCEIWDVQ
T1 sequence (P19793 1-462 partner): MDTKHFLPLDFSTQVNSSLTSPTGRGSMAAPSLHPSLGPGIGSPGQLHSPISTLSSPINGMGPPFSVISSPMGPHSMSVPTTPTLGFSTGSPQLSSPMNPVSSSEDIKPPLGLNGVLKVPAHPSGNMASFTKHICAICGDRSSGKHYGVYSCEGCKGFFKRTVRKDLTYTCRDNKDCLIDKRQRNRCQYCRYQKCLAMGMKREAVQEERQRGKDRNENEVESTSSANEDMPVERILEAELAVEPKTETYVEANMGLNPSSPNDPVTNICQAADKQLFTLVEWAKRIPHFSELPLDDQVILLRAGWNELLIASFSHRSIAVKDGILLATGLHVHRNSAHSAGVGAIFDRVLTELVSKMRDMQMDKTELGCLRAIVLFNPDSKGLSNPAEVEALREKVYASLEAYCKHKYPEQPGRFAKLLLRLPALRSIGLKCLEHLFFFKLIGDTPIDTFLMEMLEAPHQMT
Assay: In Vitro FXR Assay (TK): TK-ECRE-luc reporter in transfected CV-1 cells
Format: cell-based
Conditions: 18 hrs, luminescence, maximum efficacy of <25% of the Fexarmine control classified as '+'
How it was run: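 CV-1, transient co-transfection: hFXR + hRXR + TK-ECRE-luc + pCMX-YFP; charcoal-stripped serum. 18 h post-transfection, DMSO serial dilutions of cpd added; 18 h incubation; lysis, luminescence.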

Row | SMILES | EC50 [nM]
1 | CNC(=O)OCC(=O)N[C@H]1CC[C@H](C(=O)N(C[C@H]2CC[C@H](c3ccc(OC)c(C)c3)CC2)c2cccc(-c3cnn(C4CC4)c3)c2)CC1 [Compound 26.04, 2-((trans-4-((3-(1-Cyclopropyl-1H-pyrazol-4-yl)phenyl)((trans-4-(4-methoxy-3-methylphenyl)cyclohexyl)methyl)carbamoyl)cyclohexyl)amino)-2-oxoethyl methylcarbamate] | ≤ 250
2 | COc1ccc([C@H]2CC[C@H](CN(c3cccc(-c4cnn(C5CC5)c4)c3)C(=O)[C@H]3CC[C@H](NC(=O)OCCO)CC3)CC2)cc1C [Compound 26.05, 2-Hydroxyethyl (trans-4-((3-(1-cyclopropyl-1H-pyrazol-4-yl)phenyl)((trans-4-(4-methoxy-3-methylphenyl)cyclohexyl)methyl)carbamoyl)cyclohexyl)carbamate] | ≤ 250
3 | COc1ccc([C@H]2CC[C@H](CN(c3cccc(-c4cnn(C5CC5)c4)c3)C(=O)[C@H]3CC[C@H](NC(=O)[C@H]4CC[C@H](O)CC4)CC3)CC2)cc1C [Compound 26.06, trans-N-(3-(1-Cyclopropyl-1H-pyrazol-4-yl)phenyl)-4-(trans-4-hydroxycyclohexanecarboxamido)-N-((trans-4-(4-methoxy-3-methylphenyl)cyclohexyl)methyl) cyclohexanecarboxamide] | ≤ 250
4 | COc1ccc(C23CCC(CN(c4cccc(-c5cnn(C6CC6)c5)c4)C(=O)[C@H]4CC[C@H](NC(C)=O)CC4)(CC2)CC3)cc1C [Compound 26.07, trans-4-Acetamido-N-(3-(1-cyclopropyl-1H-pyrazol-4-yl)phenyl)-N-((4-(4-methoxy-3-methylphenyl)bicyclo[2.2.2]octan-1-yl)methyl)cyclohexanecarboxamide] | ≤ 250
5 | COc1ccc(C23CCC(CN(c4cccc(-c5cnn(C6CC6)c5)c4)C(=O)[C@H]4CC[C@H](NC(=O)COC(C)=O)CC4)(CC2)CC3)cc1C [Compound 26.08, 2-((4-((3-(1-Cyclopropyl-1H-pyrazol-4-yl)phenyl)((4-(4-methoxy-3-methylphenyl)bicyclo[2.2.2]octan-1-yl)methyl)carbamoyl)cyclohexyl)amino)-2-oxoethyl trans-acetate] | ≤ 250
6 | COc1ccc(C23CCC(CN(c4cccc(-c5cnn(C6CC6)c5)c4)C(=O)[C@H]4CC[C@H](NC(=O)CO)CC4)(CC2)CC3)cc1C [Compound 26.09, trans-N-(3-(1-Cyclopropyl-1H-pyrazol-4-yl)phenyl)-4-(2-hydroxyacetamido)-N-((4-(4-methoxy-3-methylphenyl)bicyclo[2.2.2]octan-1-yl)methyl)cyclohexanecarboxamide] | ≤ 250
7 | COc1ccc([C@H]2CC[C@H](CN(c3cccc(-c4cnn(C(C)C)c4)c3)C(=O)[C@H]3CC[C@H](NC(C)=O)CC3)CC2)cc1C [Compound 26.10, trans-4-Acetamido-N-(3-(1-isopropyl-1H-pyrazol-4-yl)phenyl)-N-((trans-4-(4-methoxy-3-methylphenyl)cyclohexyl)methyl) cyclohexanecarboxamide] | ≤ 250
8 | COc1ccc([C@H]2CC[C@H](CN(c3cccc(-c4cnn(C(C)C)c4)c3)C(=O)[C@H]3CC[C@H](NC(=O)COC(C)=O)CC3)CC2)cc1C [Compound 26.11, 2-((trans-4-((3-(1-Isopropyl-1H-pyrazol-4-yl)phenyl)((trans-4-(4-methoxy-3-methylphenyl)cyclohexyl)methyl)carbamoyl)cyclohexyl)amino)-2-oxoethyl acetate] | ≤ 250
9 | COc1ccc([C@H]2CC[C@H](CN(c3cccc(-c4cnn(C(C)C)c4)c3)C(=O)[C@H]3CC[C@H](NC(=O)CO)CC3)CC2)cc1C [Compound 26.12, trans-4-(2-Hydroxyacetamido)-N-(3-(1-isopropyl-1H-pyrazol-4-yl)phenyl)-N-((trans-4-(4-methoxy-3-methylphenyl)cyclohexyl)methyl) cyclohexanecarboxamide] | ≤ 250
10 | COc1ccc([C@H]2CC[C@H](CN(c3cccc(-c4cnn(C5CC5)c4)c3)C(=O)[C@H]3CC[C@H](CNC(C)=O)CC3)CC2)cc1C [Compound 26.13, trans-4-(Acetamidomethyl)-N-(3-(1-cyclopropyl-1H-pyrazol-4-yl)phenyl)-N-((trans-4-(4-methoxy-3-methylphenyl)cyclohexyl)methyl) cyclohexanecarboxamide] | ≤ 250
11 | COC(=O)NC[C@H]1CC[C@H](C(=O)N(C[C@H]2CC[C@H](c3ccc(OC)c(C)c3)CC2)c2cccc(-c3cnn(C4CC4)c3)c2)CC1 [Compound 26.14, Methyl ((trans-4-((3-(1-cyclopropyl-1H-pyrazol-4-yl)phenyl)((trans-4-(4-methoxy-3-methylphenyl)cyclohexyl)methyl)carbamoyl)cyclohexyl)methyl)carbamate] | ≤ 250
12 | COc1ccc([C@H]2CC[C@H](CN(c3cccc(-c4cnn(C5CC5)c4)c3)C(=O)[C@H]3CC[C@H](CNS(C)(=O)=O)CC3)CC2)cc1C [Compound 26.15, trans-N-(3-(1-Cyclopropyl-1H-pyrazol-4-yl)phenyl)-N-((trans-4-(4-methoxy-3-methylphenyl)cyclohexyl)methyl)-4-(methylsulfonamidomethyl) cyclohexanecarboxamide] | ≤ 250

More lines, now with the values ahead:

Row | EC50 [nM] | SMILES
13 | ≤ 250 | CNC(=O)OCC(=O)N[C@H]1CC[C@H](C(=O)N(C[C@H]2CC[C@H](c3ccc(OC)c(C)c3)CC2)c2cccc(-c3cnc(C4CC4)s3)c2)CC1 [Compound 25.15, 2-((trans-4-((3-(2-Cyclopropylthiazol-5-yl)phenyl)((trans-4-(4-methoxy-3-methylphenyl)cyclohexyl)methyl)carbamoyl)cyclohexyl)amino)-2-oxoethyl methylcarbamate]
14 | ≤ 250 | CCCC(=O)N[C@H]1CC[C@H](C(=O)N(C[C@H]2CC[C@H](c3ccc(OC)c(C)c3)CC2)c2cccc(-c3cnc(C4CC4)s3)c2)CC1 [Compound 25.16, trans-4-Butyramido-N-(3-(2-cyclopropylthiazol-5-yl)phenyl)-N-((trans-4-(4-methoxy-3-methylphenyl)cyclohexyl)methyl) cyclo hexanecarboxamide]
15 | ≤ 250 | CCCCC(=O)N[C@H]1CC[C@H](C(=O)N(C[C@H]2CC[C@H](c3ccc(OC)c(C)c3)CC2)c2cccc(-c3cnc(C4CC4)s3)c2)CC1 [Compound 25.17, trans-N-(3-(2-Cyclopropylthiazol-5-yl)phenyl)-N-((trans-4-(4-methoxy-3-methylphenyl)cyclohexyl)methyl)-4-pentanamidocyclohexanecarboxamide]
16 | ≤ 250 | COc1ccc([C@H]2CC[C@H](CN(c3cccc(-c4cnc(C5CC5)s4)c3)C(=O)[C@H]3CC[C@H](NC(=O)CC(C)C)CC3)CC2)cc1C [Compound 25.18, trans-N-(3-(2-Cyclopropylthiazol-5-yl)phenyl)-N-((trans-4-(4-methoxy-3-methylphenyl)cyclohexyl)methyl)-4-(3-methylbutanamido) cyclohexanecarboxamide]
17 | ≤ 250 | COC(=O)N[C@H]1CC[C@H](C(=O)N(C[C@H]2CC[C@H](c3ccc(OC)c(C)c3)CC2)c2cccc(-c3cnn(C4CC4)c3)c2)CC1 [Compound 26, Methyl (trans-4-((3-(1-cyclopropyl-1H-pyrazol-4-yl)phenyl)((trans-4-(4-methoxy-3-methylphenyl)cyclohexyl)methyl)carbamoyl)cyclohexyl)carbamate]
18 | ≤ 250 | COc1ccc([C@H]2CC[C@H](CN(c3cccc(-c4cnn(C5CC5)c4)c3)C(=O)[C@H]3CC[C@H](NC(C)=O)CC3)CC2)cc1C [Compound 26.01, trans-4-Acetamido-N-(3-(1-cyclopropyl-1H-pyrazol-4-yl)phenyl)-N-((trans-4-(4-methoxy-3-methylphenyl)cyclohexyl)methyl)cyclohexanecarboxamide]
19 | ≤ 250 | COc1ccc([C@H]2CC[C@H](CN(c3cccc(-c4cnn(C5CC5)c4)c3)C(=O)[C@H]3CC[C@H](NS(C)(=O)=O)CC3)CC2)cc1C [Compound 26.02, trans-N-(3-(1-Cyclopropyl-1H-pyrazol-4-yl)phenyl)-N-((trans-4-(4-methoxy-3-methylphenyl)cyclohexyl)methyl)-4-(methylsulfonamido) cyclohexanecarboxamide]
20 | ≤ 250 | COc1ccc([C@H]2CC[C@H](CN(c3cccc(-c4cnn(C5CC5)c4)c3)C(=O)[C@H]3CC[C@H](NC(=O)CO)CC3)CC2)cc1C [Compound 26.03, trans-N-(3-(1-Cyclopropyl-1H-pyrazol-4-yl)phenyl)-4-(2-hydroxyacetamido)-N-((trans-4-(4-methoxy-3-methylphenyl)cyclohexyl)methyl) cyclohexanecarboxamide]
